pKi: −log10 of the molar value.
Molecular target: Aβ(1–40) fibrils (Homo sapiens, UniProt P05067)
Experiment: radioligand displacement of [3H]Chrysamine-G, filtration assay
Format: binding

Aβ(1–40) fibrils, sequence (P05067 672-711): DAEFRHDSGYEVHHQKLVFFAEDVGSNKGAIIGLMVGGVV

## COc1cc(/C=C/c2ccc(/C=C/c3ccc(O)c(O)c3)cc2)ccc1O [X:034-3-OMe1, (E,E)-1-(3’,4’-dihydroxystyryl)-4-(3’-methoxy-4’hydroxystyryl)benzene]
  pKi: 7.68

## O=C(O)c1cc(/C=C/C=C/c2ccc(/C=C/C=C/c3ccc(O)c(C(=O)O)c3)cc2)ccc1O [X:EE:B34, 1,4-bis[(1E,3E)-4-(3’-carboxy-4’-hydroxyphenyl)-1,3-butadienyl]-benzene]
  pKi: 9.89

— PMC2812908 (Letters in drug design & discovery, 2009)
